Measured values published in paper PMC10642967, “Identification of a carbohydrate recognition motif of purinergic receptors” (eLife, 2023).
Numbering of substitutions follows the chain as printed.

Assays:
P2Y12-E281A = target: T1, P2Y12-E281A (Homo sapiens, UniProt Q9H244, E281A); experiment: Intracellular Ca2+ mobilization, HEK293 expressing P2Y12 E281A mutant; type: cell-based; details: calcium mobilization, mean ± SEM
T1 construct: HA (N); expressed in transfected cells; host or cells: HEK293
T1 sequence (Q9H244 whole entry E281A): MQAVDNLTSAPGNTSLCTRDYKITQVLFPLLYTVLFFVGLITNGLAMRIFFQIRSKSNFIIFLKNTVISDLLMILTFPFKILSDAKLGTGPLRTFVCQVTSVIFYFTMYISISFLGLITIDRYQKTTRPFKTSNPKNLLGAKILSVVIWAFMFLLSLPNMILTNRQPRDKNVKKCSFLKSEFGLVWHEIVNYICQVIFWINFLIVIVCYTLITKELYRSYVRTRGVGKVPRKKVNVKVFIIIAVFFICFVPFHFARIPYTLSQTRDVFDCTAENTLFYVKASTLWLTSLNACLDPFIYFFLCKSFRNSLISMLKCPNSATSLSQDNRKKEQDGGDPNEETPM
Description: (§1) Intracellular Ca^2+ assays were carried out as follows.

P2Y12-F277A = target: T2, P2Y12-F277A (Homo sapiens, UniProt Q9H244, F277A); experiment: Intracellular Ca2+ mobilization, HEK293 expressing P2Y12 F277A mutant; type: cell-based; details: calcium mobilization, mean ± SEM
T2 construct: HA (N); expressed in transfected cells; host or cells: HEK293
T2 sequence (Q9H244 whole entry F277A): as the sequence (Q9H244 whole entry E281A) above, with F277A, A281E counted along it
Description: as §1

P2Y12-K280A = target: T3, P2Y12-K280A (Homo sapiens, UniProt Q9H244, K280A); experiment: Intracellular Ca2+ mobilization, HEK293 expressing P2Y12 K280A mutant; type: cell-based; details: calcium mobilization, mean ± SEM
T3 construct: HA (N); expressed in transfected cells; host or cells: HEK293
T3 sequence (Q9H244 whole entry K280A): as the sequence (Q9H244 whole entry E281A) above, with K280A, A281E counted along it
Description: as §1

P2Y12-K80A = target: T4, P2Y12-K80A (Homo sapiens, UniProt Q9H244, K80A); experiment: Intracellular Ca2+ mobilization, HEK293 expressing P2Y12 K80A mutant; type: cell-based; details: calcium mobilization, mean ± SEM
T4 construct: HA (N); expressed in transfected cells; host or cells: HEK293
T4 sequence (Q9H244 whole entry K80A): as the sequence (Q9H244 whole entry E281A) above, with K80A, A281E counted along it
Description: as §1

P2Y12-D84A = target: T5, P2Y12-D84A (Homo sapiens, UniProt Q9H244, D84A); experiment: Intracellular Ca2+ mobilization, HEK293 expressing P2Y12 D84A mutant; type: cell-based; details: calcium mobilization, mean ± SEM
T5 construct: HA (N); expressed in transfected cells; host or cells: HEK293
T5 sequence (Q9H244 whole entry D84A): as the sequence (Q9H244 whole entry E281A) above, with D84A, A281E counted along it
Description: as §1

human P2Y12 = target: T6, human P2Y12 (Homo sapiens, UniProt Q9H244); experiment: Intracellular Ca2+ mobilization, HEK293 co-transfected with P2Y12 wild-type and Gαqi5; type: cell-based; details: calcium mobilization, HEK293, P2Y12 WT + Gαqi5, mean ± SEM
T6 construct: HA (N); expressed in transfected cells; host or cells: HEK293
T6 sequence (Q9H244 whole entry): as the sequence (Q9H244 whole entry E281A) above, with A281E counted along it
Description: as §1

P2Y14-K277A = target: T7, P2Y14-K277A (Homo sapiens, UniProt Q15391, K277A); experiment: cell-based
T7 sequence (Q15391 1-338 K277A): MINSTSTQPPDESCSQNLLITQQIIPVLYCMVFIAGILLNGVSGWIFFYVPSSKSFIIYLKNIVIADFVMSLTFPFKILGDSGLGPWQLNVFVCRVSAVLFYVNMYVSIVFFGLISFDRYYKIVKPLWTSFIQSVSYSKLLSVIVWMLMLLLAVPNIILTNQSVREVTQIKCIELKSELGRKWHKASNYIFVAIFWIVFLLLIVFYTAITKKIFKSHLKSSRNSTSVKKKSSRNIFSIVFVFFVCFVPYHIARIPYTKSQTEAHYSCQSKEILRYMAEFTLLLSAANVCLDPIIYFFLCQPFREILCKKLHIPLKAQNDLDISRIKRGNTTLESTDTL

human P2Y14 = target: T8, human P2Y14 (Homo sapiens, UniProt Q15391); experiment: Intracellular Ca2+ mobilization, HEK293 co-transfected with P2Y14 wild-type and Gαqi5; type: cell-based; details: calcium mobilization, HEK293, P2Y14 WT + Gαqi5, mean ± SEM
T8 construct: HA (N); expressed in transfected cells; host or cells: HEK293
T8 sequence (Q15391 1-338): T7 sequence (Q15391 1-338 K277A) with A277K

P2Y14-E278A = target: T9, P2Y14-E278A (Homo sapiens, UniProt Q15391, E278A); experiment: Intracellular Ca2+ mobilization, HEK293 expressing P2Y14 E278A mutant; type: cell-based; details: calcium mobilization, mean ± SEM
T9 construct: HA (N); expressed in transfected cells; host or cells: HEK293
T9 sequence (Q15391 1-338 E278A): T7 sequence (Q15391 1-338 K277A) with A277K, E278A

P2Y14-K77A = target: T10, P2Y14-K77A (Homo sapiens, UniProt Q15391, K77A); experiment: Intracellular Ca2+ mobilization, HEK293 expressing P2Y14 K77A mutant; type: cell-based; details: calcium mobilization, mean ± SEM
T10 construct: HA (N); expressed in transfected cells; host or cells: HEK293
T10 sequence (Q15391 1-338 K77A): T7 sequence (Q15391 1-338 K277A) with K77A, A277K

P2Y14-D81A = target: T11, P2Y14-D81A (Homo sapiens, UniProt Q15391, D81A); experiment: Intracellular Ca2+ mobilization, HEK293 expressing P2Y14 D81A mutant; type: cell-based; details: calcium mobilization, mean ± SEM
T11 construct: HA (N); expressed in transfected cells; host or cells: HEK293
T11 sequence (Q15391 1-338 D81A): T7 sequence (Q15391 1-338 K277A) with D81A, A277K

| SMILES | EC50 (P2Y12-E281A) | EC50 (P2Y12-F277A) | EC50 (P2Y12-K280A) | EC50 (P2Y12-K80A) | EC50 (P2Y12-D84A) | EC50 (human P2Y12) | EC50 (P2Y14-K277A) | EC50 (human P2Y14) | EC50 (P2Y14-E278A) | EC50 (P2Y14-K77A) | EC50 (P2Y14-D81A) |
| --- | --- | --- | --- | --- | --- | --- | --- | --- | --- | --- | --- |
| Nc1ncnc2c1ncn2C1OC(COP(=O)(O)OP(=O)(O)OC2OC(CO)C(O)C(O)C2O)C(O)C1O (stereo not shown) [ADP-Glc, ADP-glucose] | 75.3 ± 10.1 µM | 15.4 ± 1.1 µM | 41.8 ± 3 µM | 96.9 ± 14.4 µM | 29.3 ± 1.2 µM | 3.4 ± 0.4 µM | – | – | – | – | – |
| Nc1ncnc2c1ncn2C1OC(COP(=O)(O)OP(=O)(O)OC2OC(CO)C(O)C(O)C2O)C(O)C1O (stereo not shown) [ADP-Man, ADP-mannose] | > 150 µM | 128 ± 17.6 µM | > 150 µM | > 150 µM | > 150 µM | 12.3 ± 0.9 µM | – | – | – | – | – |

The next lines start with the values.

| EC50 (P2Y12-E281A) | EC50 (P2Y12-F277A) | EC50 (P2Y12-K280A) | EC50 (P2Y12-K80A) | EC50 (P2Y12-D84A) | EC50 (human P2Y12) | EC50 (P2Y14-K277A) | EC50 (human P2Y14) | EC50 (P2Y14-E278A) | EC50 (P2Y14-K77A) | EC50 (P2Y14-D81A) | SMILES |
| --- | --- | --- | --- | --- | --- | --- | --- | --- | --- | --- | --- |
| 28.2 ± 4.1 µM | 5 ± 0.4 µM | 18.1 ± 3.3 µM | 35.2 ± 0.5 µM | 9.4 ± 0.3 µM | 1.3 ± 0.1 µM | – | – | – | – | – | Nc1ncnc2c1ncn2C1OC(COP(=O)(O)OP(=O)(O)OC2OC(C(=O)O)C(O)C(O)C2O)C(O)C1O (stereo not shown) [ADP-GlcA, ADP-glucuronic acid] |
| – | – | – | – | – | – | > 3 µM | 0.0599 ± 0.0048 µM | 0.0382 ± 0.0022 µM | > 3 µM | 0.172 ± 0.0098 µM | O=C(O)C1OC(OP(=O)(O)OP(=O)(O)OCC2OC(n3ccc(=O)[nH]c3=O)C(O)C2O)C(O)C(O)C1O (stereo not shown) [UDP-GlcA, UDP-glucuronic acid] |
| – | – | – | – | – | – | 0.549 ± 0.0744 µM | 0.184 ± 0.0118 µM | 0.624 ± 0.102 µM | > 3 µM | 3 ± 0.174 µM | CC(=O)N[C@H]1[C@@H](OP(=O)(O)OP(=O)(O)OC[C@H]2O[C@@H](n3ccc(=O)[nH]c3=O)[C@H](O)[C@@H]2O)O[C@H](CO)[C@@H](O)[C@@H]1O [UDP-GlcNAc, UDP-N-acetylglucosamine] |
